Results: patent US4195183A, “ω-Nor-aromatic-13,14-dehydro-prostaglandins and process for their preparation” (Farmitalia Certo Erba S.p.A., priority 1976, dated 1980)
pKi: −log10 of the molar value.

What was measured:
guinea pig ileum = guinea pig ileum test (in vitro); conditions: relative to PGF2α (conventional value 1), limits in brackets
Procedure: (§1) In the Table the conventional value of 1 was given to the activity of PGF2α in both tests.
*In a 10 ml thermostatic bath held at 35° C., ilea of male guinea
pigs, under 0.5 g traction, were subjected to carbondioxide in a Tyrode
solution; the preparation was left for 30 minutes to stabilize before the
compounds were tested. The response was recorded using a isotonic frontal
lever, long enough to amplify the response 4.5 times.

oestrogenized rat uteri = assay: rat uterus test (in vitro); conditions: relative to PGF2α (conventional value 1), limits in brackets
Procedure: as §1
**In a 10 ml thermostatic bath held at 29° C., oestrogenized rat
uteri under 0.5 g traction were subjected to carbondioxide in a Dejalon
saline solution. The prepration was left to stabilize for 30 minutes
before the compounds were tested. Response was measured using a isotonic
frontal lever, long enough to amplify the response 4.5 times.

pregnant rat = assay: luteolytic activity in the pregnant rat; type: in vivo; conditions: pregnant rat at the 9th-10th day of pregnancy; relative to PGF2α (conventional value 1)
Source text: The action selectivity of the compounds of the invention on the miometrium and on the reproductive apparatus is also proven by the remarkable increase of the luteolytic activity in the pregnant rat at the 9th-10th day of pregnancy. In fact, if the conventional value 1 is given to the luteolytic activity of PGF2α, the value of 100 at least is to be given to the luteolytic activity of 13,14-dehydro-17-phenyl-20,19,18-trinor-PGF2α, and the value of 200 to the luteolytic activity of 13,14-dehydro-16-p-fluorophenoxy-20,19,18,17-tetranor-PGF2α.

[1] = biological target: T1, 15-hydroxy-prostaglandin-dehydrogenase drawn from human placenta (Homo sapiens, UniProt P15428); assay: inhibition of 15-hydroxy-prostaglandin-dehydrogenase, in vitro; type: biochemical; conditions: enzyme from human placenta; inhibition partially competitive with respect to PGF2α
T1 construct: drawn from human placenta; from tissue; host or cells: human placenta
T1 sequence (P15428 1-266): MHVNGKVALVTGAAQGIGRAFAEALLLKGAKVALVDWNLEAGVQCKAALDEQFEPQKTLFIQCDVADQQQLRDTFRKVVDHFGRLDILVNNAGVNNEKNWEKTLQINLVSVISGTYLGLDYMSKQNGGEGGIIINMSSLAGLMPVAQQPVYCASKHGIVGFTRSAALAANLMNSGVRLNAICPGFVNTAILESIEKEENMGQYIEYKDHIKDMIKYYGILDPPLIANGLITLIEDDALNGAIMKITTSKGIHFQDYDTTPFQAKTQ
Source text: The compounds of formula (I) furthermore inhibit the use of natural prostaglandins as substrate by the same enzyme.

[2] = test system: mares, cows, heifers and sowes; assay: synchronizing the estrum / haematic progesterone levels in farm animals; type: in vivo; conditions: for haematic levels of progesterone: after administration of 0.5-3 ml of the 0.5 mg/ml solution; for ability of synchronizing the estrum: solution in aqueous isotonic buffered (pH 7.5) medium, 0.5 mg/ml, mares, cows, heifers and sowes

| pKi [1] | SMILES | Guinea Pig Ileum activity, PGF2α = 1 (guinea pig ileum) | Rat Uterus activity, PGF2α = 1 (oestrogenized rat uteri) | luteolytic activity, PGF2α = 1 (pregnant rat) | haematic levels of progesterone [2] | ability of synchronizing the estrum [2] |
| --- | --- | --- | --- | --- | --- | --- |
|  | O=C(O)CCC/C=C\CC1C(O)CC(O)C1C#CC(O)COc1cccc(C(F)(F)F)c1 (stereo not drawn) [5c-9α,11α,15S-trihydroxy-20,19,18,17-tetranor-16-m-trifluoromethylphenoxy-prost-5-en-13-ynoic acid] | 0.50 (0.05-5) | 3.86 (2.96-5.03) |  |  |  |
|  | O=C(O)CCC/C=C\CC1C(O)CC(O)C1C#CC(O)COc1ccc(F)cc1 (stereo not drawn) [5c-9α,11α,15S-trihydroxy-20,19,18,17-tetranor-16-p-fluorophenoxy-prost-5-en-13-ynoic acid] | 0.50 (0.05-5) | 1.91 (1.34-2.73) | 200 |  |  |
| 3.89 | O=C(O)CCC/C=C\C[C@@H]1[C@@H](C#C[C@@H](O)CCc2ccccc2)[C@H](O)C[C@@H]1O [5c-9α,11α,15S-trihydroxy-20,19,18-trinor-17-phenyl-prost-5-en-13-ynoic acid] | 0.6 | 22.74 | ≥ 100 |  |  |
|  | CO[C@H](C#C[C@@H]1[C@@H](C/C=C\CCCC(=O)O)[C@@H](O)C[C@H]1O)CCc1ccccc1 [5c-9α,11α-dihydroxy-15S-methoxy-20,19,18-trinor-17-phenyl-prost-5-en-13-ynoic acid] | 0.05 | 4.4 |  |  |  |
|  | O=C([O-])CCC/C=C\CC1C(O)CC(O)C1C#CC(O)COc1ccc(F)cc1.[Na+] (stereo not drawn) [13,14-dehydro-16-p-fluorophenoxy-20,19,18,17-tetranor-PGF2α] |  |  |  | pronounced downfall | very good results |
|  | O=C([O-])CCC/C=C\CC1C(O)CC(O)C1C#CC(O)CCc1ccccc1.[Na+] (stereo not drawn) [13,14-dehydro-17-phenyl-20,19,18-trinor-PGF2α] |  |  |  | pronounced downfall | very good results |
|  | CCCCC[C@H](O)C#C[C@@H]1[C@@H](C/C=C\CCCC(=O)O)[C@@H](O)C[C@H]1O [13,14-dehydro-PGF2α, reference compound] | 0.6 | 1.09 |  |  |  |
|  | O=C(O)CCC/C=C\C[C@@H]1[C@@H](/C=C/[C@@H](O)CCc2ccccc2)[C@H](O)C[C@@H]1O [17-phenyl-20,19,18-trinor-PGF2α, 5c,13t-9α,11α,15S-trihydroxy-20,19,18-trinor-17-phenyl-prosta-5,13-dienoic acid, reference compound] | 2.34 | 1.54 |  |  |  |
|  | CCCCC[C@H](O)/C=C/[C@@H]1[C@@H](C/C=C\CCCC(=O)O)[C@@H](O)C[C@H]1O [PGF2α, reference compound] | 1 | 1 | 1 |  |  |
